Each structure is given as a SMILES string.

T1 sequence (P02607 2-151): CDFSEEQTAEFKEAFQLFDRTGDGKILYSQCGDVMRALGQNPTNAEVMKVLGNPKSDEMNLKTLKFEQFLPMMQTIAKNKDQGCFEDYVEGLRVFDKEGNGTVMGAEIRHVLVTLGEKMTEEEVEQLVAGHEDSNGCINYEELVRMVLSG
T1 sequence (P10587 84-789): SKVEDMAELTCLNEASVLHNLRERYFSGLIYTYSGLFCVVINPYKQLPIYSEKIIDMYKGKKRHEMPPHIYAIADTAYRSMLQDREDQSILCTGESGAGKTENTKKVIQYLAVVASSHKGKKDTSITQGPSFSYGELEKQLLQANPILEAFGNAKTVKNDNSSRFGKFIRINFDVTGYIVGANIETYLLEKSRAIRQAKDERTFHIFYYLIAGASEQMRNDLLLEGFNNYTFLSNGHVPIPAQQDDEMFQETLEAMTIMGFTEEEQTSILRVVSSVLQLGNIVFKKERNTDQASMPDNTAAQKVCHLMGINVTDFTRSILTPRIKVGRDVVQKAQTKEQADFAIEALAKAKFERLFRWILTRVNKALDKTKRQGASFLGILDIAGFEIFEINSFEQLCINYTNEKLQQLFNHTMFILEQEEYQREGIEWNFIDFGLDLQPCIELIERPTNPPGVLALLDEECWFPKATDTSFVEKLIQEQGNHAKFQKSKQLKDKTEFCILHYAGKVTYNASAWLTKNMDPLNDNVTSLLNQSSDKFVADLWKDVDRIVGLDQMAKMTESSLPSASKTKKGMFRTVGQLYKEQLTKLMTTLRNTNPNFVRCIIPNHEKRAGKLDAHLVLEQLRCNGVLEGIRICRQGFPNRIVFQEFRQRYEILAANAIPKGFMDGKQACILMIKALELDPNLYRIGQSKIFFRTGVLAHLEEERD

This test has as its target T1, chicken gizzard smooth muscle myosin subfragment-1 chemically crosslinked to cardiac or skeletal actin (Gallus gallus, UniProt P10587).
T1 construct: chicken gizzard smooth muscle myosin subfragment-1; from tissue; host or cells: chicken gizzard
The test can be described thus: Smooth muscle myosin ATPase dose response assay (pyruvate kinase/horseradish peroxidase/pyruvate oxidase-coupled, amplex red fluorescence). The class given is biochemical. To be noted: read-out: IC50 Arithmetic Mean. Summed up:
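Lead-optimization format: ATPase coupled via pyruvate kinase, pyruvate oxidase and peroxidase, pH 7.00 at 22° C, with 0.15 mM ATP, 100 mM KCl, 2 mM MgCl2, 2 mM phosphate and 0.1 mM amplex red (final). Crosslinked S1 titrated empirically for set hydrolysis rate; fluorescence (ex 480/em 615 nm) dose curves fit 4-parameter for IC50.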
For the molecule `Cc1cc(C(=O)NC[C@H]2CCC(=O)N2CCCNC(=O)OC(C)(C)C)c(NCCc2cccc(F)c2)nc1-c1ccccc1C#N` [N-[3-((5R)-5-{[(6-(2-cyanophenyl)-2-{[2-(3-fluorophenyl)ethyl]amino}-5-methyl(3-pyridyl))carbonylamino]methyl}-2-oxopyrrolidinyl)propyl](tert-butoxy)carboxamide], the half-maximal inhibitory concentration (IC50) is 5370 nM. As for `CN(C)CCCNC(=O)CNC(=O)c1ccc(-c2ccccc2C#N)nc1NCCc1cccc(F)c1` [N-[3-(dimethylamino)propyl]-2-[(6-(2-cyanophenyl)-2-{[2-(3-fluorophenyl)ethyl]amino}(3-pyridyl))carbonylamino]acetamide], the figure is 12200 nM; as for `CC(=O)N1CCCC(CNC(=O)c2ccc(-c3ccccc3)nc2NCCc2ccccn2)C1` (stereo not drawn) [N-[(1-acetyl(3-piperidyl))methyl]{6-phenyl-2-[(2-(2-pyridyl)ethyl)amino](3-pyridyl)}carboxamide], 48400 nM. In the case of `CC(=O)N1CCC(CNC(=O)c2ccc(-c3ccccc3C#N)nc2NCCc2cccc(F)c2)CC1` [N-[(1-acetyl(4-piperidyl))methyl](6-(2-cyanophenyl)-2-{[2-(3-fluorophenyl)ethyl]amino}(3-pyridyl))carboxamide], the IC50 worked out at 1700 nM. As for `CC(=O)N1CCC(CNC(=O)c2ccc(-c3ccccc3)nc2NCCc2ccccn2)CC1` [N-[(1-acetyl(4-piperidyl))methyl]{6-phenyl-2-[(2-(2-pyridyl)ethyl)amino](3-pyridyl)}carboxamide], the figure is 96700 nM; as for `CC(=O)N1CCC(CNC(=O)c2ccc(-c3ccccc3C#N)nc2NCCc2cccc(F)c2)C1` (stereo not drawn) [N-[(1-acetylpyrrolidin-3-yl)methyl](6-(2-cyanophenyl)-2-{[2-(3-fluorophenyl)ethyl]amino}(3-pyridyl))carboxamide], 334 nM.

For `Cn1ccc(CNC(=O)c2ccc(-c3ccccc3)nc2NCCc2ccccn2)n1` [N-[(1-methylpyrazol-3-yl)methyl]{6-phenyl-2-[(2-(2-pyridyl)ethyl)amino](3-pyridyl)}carboxamide], the IC50 is 2730 nM. Next, `Cn1nccc1CNC(=O)c1ccc(-c2ccccc2)nc1NCCc1ccccn1` [N-[(1-methylpyrazol-5-yl)methyl]{6-phenyl-2-[(2-(2-pyridyl)ethyl)amino](3-pyridyl)}carboxamide]: 1300 nM.

As to `CC(C)(C)OC(=O)NCCn1ccc(CNC(=O)c2ccc(-c3cc[nH]n3)nc2NCCc2cccc(F)c2)n1` [N-[(1-{2-[(tert-butoxy)carbonylamino]ethyl}pyrazol-3-yl)methyl](2-{[2-(3-fluorophenyl)ethyl]amino}-6-pyrazol-3-yl(3-pyridyl))carboxamide], the IC50 was 12000 nM.

On to `CC(C)(C)OC(=O)NCCn1ccc(CNC(=O)c2ccc(-c3ccccc3C#N)nc2NCCc2cccc(F)c2)n1` [N-[(1-{2-[(tert-butoxy)carbonylamino]ethyl}pyrazol-3-yl)methyl](6-(2-cyanophenyl)-2-{[2-(3-fluorophenyl)ethyl]amino}(3-pyridyl))carboxamide], for which the IC50 stood at 2730 nM. With `CC(C)(C)OC(=O)NCCn1nccc1CNC(=O)c1ccc(-c2ccccc2C#N)nc1NCCc1cccc(F)c1` [N-[(1-{2-[(tert-butoxy)carbonylamino]ethyl}pyrazol-5-yl)methyl](6-(2-cyanophenyl)-2-{[2-(3-fluorophenyl)ethyl]amino}(3-pyridyl))carboxamide], the half-inhibitory concentration (IC50) worked out at 2200 nM. Take `CC(C)(C)OC(=O)NCCN1CCCC1CNC(=O)c1ccc(-c2ccccc2C#N)nc1NCCc1cccc(F)c1` (stereo not drawn) [N-[(1-{2-[(tert-butoxy)carbonylamino]ethyl}pyrrolidin-2-yl)methyl](6-(2-cyanophenyl)-2-{[2-(3-fluorophenyl)ethyl]amino}(3-pyridyl))carboxamide]: the 50% inhibitory concentration (IC50) came out at 4830 nM.

On to `Cn1cc(-c2ccc(C(=O)NCC3CCN(CCCNC(=O)OC(C)(C)C)C3=O)c(NCCc3cccc(F)c3)n2)cn1` (stereo not drawn) [N-[(1-{3-[(tert-butoxy)carbonylamino]propyl}-2-oxopyrrolidin-3-yl)methyl](2-{[2-(3-fluorophenyl)ethyl]amino}-6-(1-methylpyrazol-4-yl)(3-pyridyl))carboxamide], for which the half-inhibitory concentration (IC50) turned out to be 699 nM. As for `CC(C)(C)OC(=O)NCCCN1CCC(CNC(=O)c2ccc(-c3cn[nH]c3)nc2NCCc2cccc(F)c2)C1=O` (stereo not drawn) [N-[(1-{3-[(tert-butoxy)carbonylamino]propyl}-2-oxopyrrolidin-3-yl)methyl](2-{[2-(3-fluorophenyl)ethyl]amino}-6-pyrazol-4-yl(3-pyridyl))carboxamide], the 50% inhibitory concentration (IC50) came out at 589 nM. `CC(C)(C)OC(=O)NCCCN1CCC(CNC(=O)c2ccc(-c3ccccc3C#N)nc2NCCc2cccc(F)c2)C1=O` (stereo not drawn) [N-[(1-{3-[(tert-butoxy)carbonylamino]propyl}-2-oxopyrrolidin-3-yl)methyl](6-(2-cyanophenyl)-2-{[2-(3-fluorophenyl)ethyl]amino}(3-pyridyl))carboxamide]: the half-inhibitory concentration (IC50) turned out to be 104 nM.

Regarding `CC(C)(C)OC(=O)NCCCN1C(=O)CCCC1CNC(=O)c1ccc(-c2ccccc2C#N)nc1NCCc1cccc(F)c1` (stereo not drawn) [N-[(1-{3-[(tert-butoxy)carbonylamino]propyl}-6-oxo(2-piperidyl))methyl](6-(2-cyanophenyl)-2-{[2-(3-fluorophenyl)ethyl]amino}(3-pyridyl))carboxamide], the IC50 stood at 877 nM.

On to `CC(C)(C)OC(=O)NCCCN1C(=O)CCCCC1CNC(=O)c1ccc(-c2ccccc2C#N)nc1NCCc1cccc(F)c1` (stereo not drawn) [N-[(1-{3-[(tert-butoxy)carbonylamino]propyl}-7-oxoazaperhydroepin-2-yl)methyl](6-(2-cyanophenyl)-2-{[2-(3-fluorophenyl)ethyl]amino}(3-pyridyl))carboxamide], for which the IC50 turned out to be 17200 nM. `CC(C)(C)OC(=O)NCCCN1CCCC1CNC(=O)c1ccc(-c2ccccc2C#N)nc1NCCc1cccc(F)c1` (stereo not drawn) [N-[(1-{3-[(tert-butoxy)carbonylamino]propyl}pyrrolidin-2-yl)methyl](6-(2-cyanophenyl)-2-{[2-(3-fluorophenyl)ethyl]amino}(3-pyridyl))carboxamide]: the IC50 is 2080 nM.

With `CC(C)(C)OC(=O)N[C@H](CO)C(=O)N1CC[C@@H]1CNC(=O)c1ccc(-c2ccccc2C#N)nc1NCCc1cccc(F)c1` [N-[(1R)-2-((2R)-2-{[(6-(2-cyanophenyl)-2-{[2-(3-fluorophenyl)ethyl]amino}(3-pyridyl))carbonylamino]methyl}azetidinyl)-1-(hydroxymethyl)-2-oxoethyl](tert-butoxy)carboxamide], the IC50 worked out at 439 nM. Take `C[C@@H](NC(=O)OC(C)(C)C)C(=O)N1CCC[C@@H]1CNC(=O)c1ccc(-c2ccccc2C#N)nc1NCCc1cccc(F)c1` [N-[(1R)-2-((2R)-2-{[(6-(2-cyanophenyl)-2-{[2-(3-fluorophenyl)ethyl]amino}(3-pyridyl))carbonylamino]methyl}pyrrolidinyl)-1-methyl-2-oxoethyl](tert-butoxy)carboxamide]: the concentration for half-maximal inhibition (IC50) was 3940 nM. As for `Cn1cc(-c2nc(NCCc3cccc(F)c3)c(C(=O)NCC3COC(C)(C)OC3)cc2F)cn1` [N-[(2,2-dimethyl(1,3-dioxan-5-yl))methyl](5-fluoro-2-{[2-(3-fluorophenyl)ethyl]amino}-6-(1-methylpyrazol-4-yl)(3-pyridyl))carboxamide], the figure is 2230 nM.

One may read the IC50 as the concentration that gives 50% inhibition.

These data come from patent publication US7932270B2 (Cytokinetics, Inc., priority 2006, dated 2011).
